Laboratory results published in the NIST ThermoML archive (doi:10.1021/je034102r).
Numbers after ± are expanded uncertainties.

Experiment: molar heat capacity at saturation pressure
Settings: Small (less than 1 g) adiabatic calorimetry

CCCCn1cc[n+](C)c1.F[P-](F)(F)(F)(F)F [1-butyl-3-methylimidazolium hexafluorophosphate]
Settings | molar heat capacity [J/K/mol]
110.13 K, Crystal | 163.1 ± 0.92
112.28 K, Glass | 180.3 ± 1
112.77 K, Crystal | 165.8 ± 0.92
114.54 K, Glass | 183.2 ± 1
115.37 K, Crystal | 168.1 ± 0.92
116.84 K, Glass | 185.7 ± 1
117.92 K, Crystal | 170.7 ± 0.92
119.11 K, Glass | 188.2 ± 1
120 K, Crystal | 172.9 ± 0.92
120 K, Glass | 189.1 ± 1
120.6 K, Crystal | 173.4 ± 0.92
121.35 K, Glass | 190.5 ± 1
123.41 K, Crystal | 176.3 ± 0.92
123.71 K, Glass | 193.2 ± 1
126.17 K, Crystal | 178.9 ± 1
126.2 K, Glass | 195.8 ± 1.1
128.66 K, Glass | 198.4 ± 1.1
128.89 K, Crystal | 181.8 ± 1
130 K, Crystal | 182.8 ± 0.92
130 K, Glass | 200 ± 1
131.16 K, Glass | 201.3 ± 1.1
131.56 K, Crystal | 184.6 ± 1
133.7 K, Glass | 204.1 ± 1.1
134.28 K, Crystal | 187.2 ± 1
136.2 K, Glass | 207.1 ± 1.1
137.03 K, Crystal | 190.2 ± 1
138.67 K, Glass | 209.8 ± 1.1
139.75 K, Crystal | 193 ± 1
140 K, Crystal | 193.1 ± 1
140 K, Glass | 211 ± 1.1
141.19 K, Glass | 212.4 ± 1.2
142.43 K, Crystal | 195.6 ± 1.1
143.75 K, Glass | 215.3 ± 1.2
145.07 K, Crystal | 198.5 ± 1.1
146.28 K, Glass | 217.9 ± 1.2
147.68 K, Crystal | 201.1 ± 1.1
148.93 K, Glass | 220.9 ± 1.2
150 K, Crystal | 203.7 ± 1
150 K, Glass | 222.2 ± 1.1
150.26 K, Crystal | 204.1 ± 1.1
151.7 K, Glass | 224.2 ± 1.2
152.8 K, Crystal | 206.7 ± 1.1
154.44 K, Glass | 226.9 ± 1.2
155.32 K, Crystal | 209.6 ± 1.1
157.14 K, Glass | 230.1 ± 1.2
157.81 K, Crystal | 212.4 ± 1.2
159.81 K, Glass | 233.2 ± 1.2
160 K, Crystal | 214.6 ± 1.1
160 K, Glass | 233.6 ± 1.2
160.34 K, Crystal | 214.8 ± 1.2
162.53 K, Glass | 236.6 ± 1.2
162.92 K, Crystal | 217.8 ± 1.2
165.29 K, Glass | 239.8 ± 1.2
165.46 K, Crystal | 220.6 ± 1.2
168.02 K, Glass | 243.1 ± 1.2
168.07 K, Crystal | 223.6 ± 1.2
170 K, Crystal | 225.7 ± 1.1
170 K, Glass | 245.7 ± 1.2
170.71 K, Crystal | 226.4 ± 1.2
170.72 K, Glass | 246.4 ± 1.3
173.34 K, Crystal | 229.6 ± 1.2
173.39 K, Glass | 249.7 ± 1.3
175.93 K, Crystal | 232.7 ± 1.2
176.04 K, Glass | 253 ± 1.3
177.26 K, Glass | 254.8 ± 1.3
178.5 K, Crystal | 235.4 ± 1.2
180 K, Crystal | 237.2 ± 1.2
180 K, Glass | 258.1 ± 1.2
180.15 K, Glass | 258.7 ± 1.3
181.04 K, Crystal | 238.3 ± 1.2
183.09 K, Glass | 263.9 ± 1.4
183.56 K, Crystal | 241.2 ± 1.2
186.06 K, Crystal | 244.3 ± 1.2
186.06 K, Glass | 273 ± 1.4
188.53 K, Crystal | 247.2 ± 1.3
188.97 K, Glass | 285 ± 1.5
190 K, Crystal | 248.8 ± 1.2
190 K, Glass | 270.5 ± 1.2
190.6 K, Glass | 271.2 ± 1.2
190.6 K, Liquid | 352.9 ± 1.6
190.98 K, Crystal | 249.9 ± 1.3
191.7 K, Glass | 322.8 ± 1.7
193.42 K, Crystal | 252.8 ± 1.3
194.24 K, Glass | 351 ± 1.8
194.81 K, Crystal | 254.5 ± 1.3
196.8 K, Liquid | 355.5 ± 1.8
197.49 K, Crystal | 257.7 ± 1.3
199.36 K, Liquid | 356.4 ± 1.8
200 K, Crystal | 260.7 ± 1.2
200 K, Liquid | 356.9 ± 1.7
200.29 K, Crystal | 260.8 ± 1.3
201.91 K, Liquid | 357.9 ± 1.8
203.07 K, Crystal | 264.4 ± 1.4
204.58 K, Liquid | 359.1 ± 1.8
205.82 K, Crystal | 267.4 ± 1.4
207.37 K, Liquid | 360.1 ± 1.8
208.72 K, Crystal | 270.5 ± 1.4
210 K, Crystal | 272.2 ± 1.3
210 K, Liquid | 361.4 ± 1.7
210.22 K, Liquid | 361.4 ± 1.8
211.76 K, Crystal | 274.3 ± 1.4
213.13 K, Liquid | 363.4 ± 1.8
214.78 K, Crystal | 277.7 ± 1.4
217.77 K, Crystal | 280.9 ± 1.5
220 K, Crystal | 283.4 ± 1.3
220 K, Liquid | 366.1 ± 1.7
220.73 K, Crystal | 284.4 ± 1.5
223.67 K, Crystal | 287.4 ± 1.5
226.59 K, Crystal | 290.7 ± 1.5
229.55 K, Crystal | 293.6 ± 1.5
230 K, Crystal | 294.2 ± 1.4
230 K, Liquid | 370.9 ± 1.7
232.58 K, Crystal | 297.2 ± 1.6
235.59 K, Crystal | 300.4 ± 1.6
238.56 K, Crystal | 303.6 ± 1.6
238.61 K, Liquid | 375.5 ± 1.9
240 K, Crystal | 305.2 ± 1.4
240 K, Liquid | 376 ± 1.7
240.98 K, Liquid | 376.4 ± 1.9
241.58 K, Crystal | 307.1 ± 1.6
243.49 K, Liquid | 377.7 ± 1.9
244.65 K, Crystal | 310.8 ± 1.6
246 K, Liquid | 379.1 ± 1.9
247.69 K, Crystal | 313.5 ± 1.7
248.49 K, Liquid | 379.9 ± 1.9
250 K, Crystal | 316.7 ± 1.5
250 K, Liquid | 381.1 ± 1.7
250.71 K, Crystal | 316.9 ± 1.7
250.97 K, Liquid | 381.9 ± 2
253.43 K, Liquid | 382.8 ± 2
253.7 K, Crystal | 320.9 ± 1.7
256.03 K, Liquid | 384.1 ± 2
256.67 K, Crystal | 323.9 ± 1.7
258.86 K, Liquid | 386 ± 2
259.68 K, Crystal | 327.4 ± 1.7
260 K, Crystal | 328.2 ± 1.5
260 K, Liquid | 386.5 ± 1.7
261.82 K, Liquid | 387.4 ± 2
262.73 K, Crystal | 331.8 ± 1.7
264.77 K, Liquid | 388.5 ± 2
265.76 K, Crystal | 335.3 ± 1.7
267.7 K, Liquid | 390.6 ± 2
268.75 K, Crystal | 342 ± 1.7
270 K, Crystal | 339.6 ± 1.6
270 K, Liquid | 392.1 ± 1.7
270.75 K, Liquid | 392.9 ± 2
273.92 K, Liquid | 394.4 ± 2
277.07 K, Liquid | 396.2 ± 2
279.27 K, Liquid | 397.3 ± 2
280 K, Crystal | 351 ± 1.6
280 K, Liquid | 397.8 ± 1.8
280.22 K, Liquid | 397.8 ± 2
282.28 K, Liquid | 399.3 ± 2.1
283.51 K, Crystal | 355.1 ± 1.6
283.51 K, Liquid | 399.8 ± 1.8
285.27 K, Liquid | 401.1 ± 2.1
288.25 K, Liquid | 402.9 ± 2.1
290 K, Liquid | 403.8 ± 1.8
290.53 K, Liquid | 404.3 ± 2.1
291.29 K, Liquid | 404.5 ± 2.1
293.21 K, Liquid | 406.2 ± 2.1
294.38 K, Liquid | 406.7 ± 2.1
296.25 K, Liquid | 407.3 ± 2.1
297.45 K, Liquid | 409 ± 2.1
298.15 K, Liquid | 408.7 ± 1.8
299.28 K, Liquid | 409.7 ± 2.1
300 K, Liquid | 409.8 ± 1.8
300.51 K, Liquid | 409.8 ± 2.1
302.31 K, Liquid | 411.6 ± 2.1
303.56 K, Liquid | 411.8 ± 2.1
305.32 K, Liquid | 412.9 ± 2.1
306.66 K, Liquid | 414 ± 2.1
308.31 K, Liquid | 414.6 ± 2.1
309.81 K, Liquid | 416 ± 2.2
310 K, Liquid | 415.9 ± 1.8
311.31 K, Liquid | 416.3 ± 2.2
320 K, Liquid | 422.3 ± 5
340 K, Liquid | 434.7 ± 8.7
360 K, Liquid | 446.2 ± 8.9
380 K, Liquid | 457 ± 9.1
400 K, Liquid | 466.9 ± 9.3
420 K, Liquid | 476 ± 9.6
440 K, Liquid | 484.3 ± 9.7
460 K, Liquid | 491.8 ± 9.8
480 K, Liquid | 498.5 ± 10
500 K, Liquid | 504.4 ± 10
520 K, Liquid | 509.5 ± 10
540 K, Liquid | 513.8 ± 10
550 K, Liquid | 515.6 ± 10
